The text below walks through data of patent US7772271B2 (priority 2004, dated 2010).

For `CCCNC(=O)Nc1ccc(-c2c(C#N)c3ccc(OCc4csc(C)n4)cc3n2CC)cc1` [Compound 1415], the melting point is 220 to 222 °C.

As to `CCn1c(-c2ccc(NC(=O)O[C@H](C)C3CC3)cc2)c(C#N)c2ccc(OC3CCS(=O)(=O)CC3)cc21` [Compound 3231], the melting point was in the range of 189 to 196 °C.

With `N#Cc1c(-c2ccc(NCC3CCCCC3)cc2)n(C2CCC2)c2cc(OCCF)ccc12` [Compound 3241], the melting point was 169 to 173 °C.

`N#Cc1c(-c2ccc(NCc3ccccc3F)cc2)n(C2CCC2)c2cc(OC3CCOCC3)ccc12` [Compound 3120] yielded a melting point of 180 to 181 °C.

Compound `CCCS(=O)(=O)Nc1ccc(-c2c(C#N)c3ccc(Oc4ncccc4C(C)=O)cc3n2C2CCC2)cc1` [Compound 3311] returned a melting point of 191 to 194 °C.

`COCCOc1ccc2c(C#N)c(-c3ccc(NC(=O)OC(c4ccccc4)C(F)(F)F)cc3)n(C(C)C)c2c1` (centres unmarked) [Compound 2688]: the melting point is 150 to 155 °C.

With `Cc1cc(-c2c(C#N)c3ccc(OC4CCOCC4)cc3n2C2CCC2)ccc1NC(=O)OC(C)C` [Compound 2889], the melting point fell in the range of 129 to 130 °C.

For the compound `CCS(=O)(=O)Nc1ccc(-c2c(C#N)c3ccc(N4CCCCC4)cc3n2C2CCC2)cc1` [Compound 2974], the melting point lay within 203 to 205 °C.

In the case of `CCn1c(-c2cccc(NC(=O)N3CCN(C)CC3)c2)c(C#N)c2ccc(OC)cc21` [Compound 1375], the melting point is 108 to 120 °C.

With `CC(C)NC(=O)Nc1ccc(-c2c(C#N)c3cc(OCCCn4ccnc4)ccc3n2C2CCC2)cc1` [Compound 2727], the melting point lay within 232 to 234 °C.

Take `CCOc1ccc2c(C#N)c(-c3ccc(NC(=O)NCCO)cc3)n(C3CCC3)c2c1` [compound 1408, 1-[4-(3-cyano-1-cyclobutyl-6-ethoxy-1H-indol-2-yl)-phenyl]-3-(2-hydroxy-ethyl)-urea]: the melting point was 199 to 203 °C.

Consider `Cc1csc(Nc2ccc(-c3c(C#N)c4ccc(OC5CCOCC5)cc4n3C3CCC3)cc2)n1` [Compound 3152], for which the melting point was in the range of 215 to 217 °C.

In the case of `CCn1c(-c2ccc(N3CCCS3(=O)=O)cc2)c(C#N)c2ccc(N3CCN(S(=O)(=O)C4CC4)CC3)cc21` [Compound 1357], the melting point fell in the range of 278 to 280 °C.

Regarding `CCOCCOc1ccc2c(C#N)c(-c3ccc(NC(=O)OC(C)C(F)(F)F)cc3)n(C3CCC3)c2c1` (centres unmarked) [Compound 2636], the melting point was 122 to 124 °C.

Compound `Cc1ccnc(Oc2ccc3c(C#N)c(-c4ccc(NS(=O)(=O)C5CC5)cc4)n(C4CCC4)c3c2)n1` [Compound 2903] registered a melting point of 172 to 174 °C.

Consider `CCn1c(-c2ccc(NC(=O)OCc3ccccc3)cc2)c(C#N)c2ccc(OCCOC)cc21` [Compound 1372], for which the melting point lay within 107 to 109 °C.

`CC(NC(=O)Nc1ccc(-c2c(C#N)c3ccc(OC4CCOCC4)cc3n2C2CC2)cc1)c1ccc(F)cc1` (centres unmarked) [Compound 2653] registered a melting point of 189 to 192 °C.

With `CS(=O)(=O)Nc1ccc(-c2c(C#N)c3ccc(N4CCOCC4)cc3n2C2CCC2)cc1` [Compound 2915], the melting point lay within 269 to 271 °C.

For `CCCS(=O)(=O)Nc1ccc(-c2c(C#N)c3ccc(OCS(C)(=O)=O)cc3n2C2CCC2)cc1` [Compound 2987], the melting point was 266 to 273 °C.

Consider `CCCS(=O)(=O)Nc1ccc(-c2c(C#N)c3ccc(Oc4nccnc4C#N)cc3n2CC2CC2)c(C)c1` [Compound 3248], for which the melting point is 238 to 241 °C.

With `CCCS(=O)(=O)Nc1ccc(-c2c(C#N)c3ccc(Oc4ncccc4Br)cc3n2C2CC2)cc1` [Compound 3003], the melting point lay in the range of 223 to 225 °C.

`CC(C)Nc1ccc(-c2c(C#N)c3ccc(Oc4ncccc4C#N)cc3n2C2CC2)cc1` [Compound 3213] yielded a melting point of 195 to 197 °C.

On to `CCCS(=O)(=O)Nc1ccc(-c2c(C#N)c3ccc(Oc4ncccc4C#N)cc3n2CC2CC2)c(Cl)c1` [Compound 3306], for which the melting point was 218 to 220 °C.

Compound `N#Cc1c(-c2ccc(Nc3cccnc3)cc2)n(C2CCC2)c2cc(OC3CCOCC3)ccc12` [Compound 3165] displayed a melting point of 210 to 212 °C.

Consider `N#Cc1c(-c2ccc(NS(=O)(=O)NCC3CC3)cc2)n(C2CC2)c2cc(Oc3nccnc3Cl)ccc12` [Compound 2949], for which the melting point was in the range of 181 to 183 °C.

For the compound `CC(C)S(=O)(=O)Nc1ccc(-c2c(C#N)c3ccc(OC4CCOCC4)cc3n2C2CCC2)cc1` [Compound 2748], the melting point is 211 to 213 °C.

The compound `C[C@@H](OC(=O)Nc1ccc(-c2c(C#N)c3ccc(OCCF)cc3n2C2CCC2)cc1)C(F)(F)F` [Compound 2879] gave a melting point of 198 to 200 °C.

As for `COCCOc1ccc2c(C#N)c(-c3ccc(NC(=O)OC(C)C(F)(F)F)cc3)n(C(C)C)c2c1` (centres unmarked) [Compound 2686], the melting point fell in the range of 162 to 165 °C.

`CC(C)S(=O)(=O)Nc1ccc(-c2c(C#N)c3ccc(OC4COCOC4)cc3n2C2CCC2)cc1` [Compound 2920] gave a melting point of 196 to 198 °C.

Turning to `C[C@@H](OC(=O)Nc1ccc(-c2c(C#N)c3ccc(OC(=O)NC4CCCCC4)cc3n2C2CCC2)cc1)C1CC1` [Compound 3172], the melting point was in the range of 213 to 216 °C.

On to `Cc1nccnc1Oc1ccc2c(c1)c(C#N)c(-c1ccc(NC(=O)O[C@H](C)C3CC3)cc1)n2C1CCC1` [Compound 3254], for which the melting point lay within 214 to 215 °C.

`CCCS(=O)(=O)Nc1ccc(-c2c(C#N)c3cc(OC4COCOC4)ccc3n2C2CCC2)cc1` [Compound 2776] came in with a melting point of 183 to 184 °C.

For the compound `COCCOc1ccc2c(C#N)c(-c3ccc(C(=O)NC4CCC4)cc3)n(C3CCC3)c2c1` [Compound 2759], the melting point fell in the range of 199 to 200 °C.

In turn, `CCCS(=O)(=O)Nc1ccc(-c2c(C#N)c3cc(C(=O)N(C)C)ccc3n2C2CCC2)cc1` [Compound 3094] registered a melting point of 236 to 237 °C.

As for `CC(OC(=O)Nc1ccc(-c2c(C#N)c3ccc(OC4CCCO4)cc3n2C2CC2)cc1)C1CC1` (centres unmarked) [compound 1444, {4-[3-cyano-1-cyclopropyl-6-(tetrahydrofuran-2-yloxy)indol-2-yl]phenyl}carbamic acid 1-cyclopropylethyl ester], the melting point was in the range of 189 to 191 °C.

Take `C[C@@H](OC(=O)Nc1ccc(-c2c(C#N)c3ccc(N4CCS4(=O)=O)cc3n2C2CCC2)cc1)C1CC1` [Compound 3318]: the melting point is 235 °C (dec.).

Turning to `C[C@@H](OC(=O)Nc1ccc(-c2c(C#N)c3ccc(OCCCS(C)(=O)=O)cc3n2C2CCC2)cc1)C(F)(F)F` [Compound 2958], the melting point lay within 206 to 208 °C.

The compound `C[C@@H](OC(=O)Nc1ccc(-c2c(C#N)c3ccc(N4CCOCC4)cc3n2C2CCC2)cc1)C1CC1` [Compound 2866] came in with a melting point of 194 to 195 °C.

`CCCS(=O)(=O)Nc1ccc(-c2c(C#N)c3ccc(OCCCN4C(=O)CCC4=O)cc3n2C2CCC2)cc1` [Compound 3296] displayed a melting point of 215 to 216 °C.

Turning to `CCCS(=O)(=O)Nc1ccc(-c2c(C#N)c3cc(C(=O)N(C)CC)ccc3n2C2CCC2)cc1` [Compound 3096], the melting point was in the range of 138 to 139 °C.

In the case of `C[C@H](NS(=O)(=O)Nc1ccc(-c2c(C#N)c3ccc(Oc4ncccc4C#N)cc3n2C2CCC2)cc1)C1CC1` [Compound 3275], the melting point is 130 °C (dec.).

The term melting point denotes the temperature, or range, at which the solid turns liquid.
